# Measured values from US6458840B2, “Use of valproic acid analog for the treatment and prevention of migraine and affective illness” (American Biogenetic Sciences, Inc., priority 1998, dated 2002).
# Columns and labels:
# [1] = test system: amygdala-kindled seizures; settings: rats; cited from earlier work
# [2] = test system: PTZ induced seizures; settings: literature / earlier application; cited from earlier work
# [3] = test system: amygdala-kindled seizures; test: Amygdala-kindling in fully kindled rats (anti-seizure effects); format: in vivo, rat; settings: 100 mg/kg
# Procedure: For implantation of stimulation and recording electrodes, rats were anesthetized with chloral hydrate (360 mg/kg i.p.) and received stereotaxic implantation (according to the surgery methods described in the atlas of Paxinos and Watson [1986]) of one bipolar electrode in the right basolateral amygdala. Coordinates for electrode implantation were AP-2.2 mm, L-4.8 mm, V-8.5 mm. All coordinates were measured from bregma. Skull screws served as the indifferent reference electrode. The electrode assembly was attached to the skull by dental acrylic cement. After a postoperative period of 2 weeks, constant current stimulations (500 μA, 1 ms, monophasic square-wave pulses, 50/s for 1 s) were delivered to the amygdala at intervals of 1/day until ten stage 5 seizures were elicited. The electrical susceptibility of the stimulated region (threshold for induction of afterdischarges) was recorded on the first day of the experiment (initial afterdischarge threshold) as well as after kindling acquisition (with an interval of at least 4 days after the tenth stage 5 seizure) using an ascending staircase procedure. The initial current intensity was 1 OμA, and the current intensity was increased in steps of about 20% of the previous current at intervals of 1 min until an afterdischarge of at least 3 s duration was elicited. […] In addition to afterdischarge threshold, the following parameters of kindled seizures were measured in fully-kindled rats after stimulation with the afterdischarge threshold current: seizure severity was classified according to Racine (1972): 1 -immobility, eye closure, twitching of vibrissae, sniffing, facial clonus; 2-head nodding associated with more severe facial clonus; 3-clonus of one forelimb; 4-rearing, often accompanied by bilateral forelimb clonus; 5-rearing with loss of balance and falling accompanied by generalized clonic seizures. Seizure duration 1 (SD 1) was the duration of limbic (stage 1-2) and/or motor seizures (stage 3-5). Seizure duration 2 (SD 2) included the time of limbic and/or motor seizures plus the adjacent time of immobility. Afterdischarge duration 1 (ADD 1) was the time of spikes in the EEG recorded from the site of stimulation with a frequency of at least 1 /s. Afterdischarge duration 2 (ADD 2) was the total time of spikes occurring in the EEG including those, which followed the ADD 1 with lower frequency and amplitude.
# The anti-seizure effects of 2-propyl-4-hexynoic acid and valproate in fully kindled rats were determined in a group of 8-9 rats (no. 784, 785, 787, 788, 789, 790 [had to be taken out of the trial, because of loss of electrodes], 791, 792, 793) with reproducible stage 5 seizures.
# Drugs were injected 15 min prior to stimulation intraperitoneally. Control experiments were always performed 2-3 days before each drug experiment. For control determinations, rats received i.p. injections of vehicle (saline) with the pretreatment time of the respective drug experiment. For all drug experiments, at least 4 days were interposed between 2 drug injections in order to avoid alterations in drug potency due to cumulation or tolerance.
# The significance of differences between pre-drug control recordings and recordings after drug injection was calculated by the Wilcoxon signed rank test for paired replicates (SigmaStat for Windows, version 1.0).
# [4] = Rotarod test (neurological deficit) in kindled rats; format: in vivo, rat; settings: 100 mg/kg; 13′; all 8 animals +
# Procedure: (§1) Tests included open field observations, rotarod test and body temperature. Tests were always performed in the same manner in control and drug experiments at two different times, just before application of drug or vehicle and 13 minutes after application.
# The rotarod test was carried out with a rod of 6 cm diameter and rotation speed of 8 r.p.m. Neurological deficit was indicated by inability of the animals to maintain their equilibrium for at least 1 min on the rotating rod. Rats had to be trained prior to drug experiments to maintain their balance on the rod. After drug or vehicle treatment, rats which were not able to maintain their equilibrium on the rod for 1 minute were put again on the rod twice.
# [5] = Rectal body temperature; format: in vivo, rat; settings: 100 mg/kg; 13′ post appl.; mean of 8 rats; ante appl. 38.71
# Procedure: Female Wistar rats (Harlan-Winkelmann, Borchen, Germany) were obtained at an age of 11-12 weeks (body weight 180-200 g). Female rats were employed because they are known to eliminate drugs less rapidly than do males, which was thought to be an advantage for drug potency studies. Rats were kept separately in plastic cages at controlled temperature (23° C.) and humidity (about 50 %) with a 12-h light cycle beginning at 7 a.m. They received standard diet (Altromin; Lage, F.R.G.), tap water and libitum. All drug injections were done in the afternoon at an ambient temperature of 23-25° C. The regular protocol started by taking the rats out of their individual cage, weighing them and joining them together on a table with six open plastic cages for better behavioral observations. Therefore animals were able to move from one cage to another and either to have social contact or to avoid it. After a short adaptation time of approximately 15 minutes, rectal body temperatures were recorded followed by drug or vehicle application.
# as §1
# In addition to these quantitative estimations of neurological deficit, behavioral alterations observed after administration of 2-propyl-4-hexynoic acid and valproate noted in the cage and by placing the animals in an open field of 90-100 cm diameter. Muscle tone was estimated by palpation of the abdomen. The extent of deficits in behavior after administration of the compounds was determined by a rating system (Loscher et al. 1987). In short, animals were taken out of the cage, placed in an open field, observed for about 1 minute and rated separately for ataxia, abducted hindlimbs, reduced righting, flat body posture, circling, Straub tail, piloerection, hypolocomotion and hyperlocomotion (abdominal muscle tone was evaluated by palpation at the end of the period of observation). All other parameters except ataxia were scored from 0 to 3: 0-absent; 1-equivocal; 2-present; 3- intense. For ataxia (06): 1 -slight ataxia in hind-legs (tottering of the hind quarters); 2-more pronounced ataxia with dragging of hind legs; 3-further increase of ataxia and more pronounced dragging of hind legs; 4-marked ataxia, animals lose balance during forward locomotion; 5- very marked ataxia with frequent loss of balance during forward locomotion; 6-permanent loss of righting reflexes, but animal still attempts to move forward. Rectal body temperature was measured by an electronic thermometer. Body weight of the animals was recorded once daily before drug injection. Significance of differences in behavior between pre-drug and post-drug data determined in the same group of animals was calculated by the Wilcoxon signed rank test for paired replicates and for body temperature by Student's paired t-test (SigmaStat for Windows, version 1.0). Differences in body temperature were always compared only within the experimental day with the pre-drug time as control to one post-drug time.
smiles,measurement,setting,value
CN1C(=O)CN=C(c2ccccc2)c2cc(Cl)ccc21 [Diazepam],"effect on complete, late-stage or spontaneous kindled seizures, in words",[1],not effective during the late stages
same,"effect on development / early stages of kindled seizures, in words",[1],effective in inhibiting the earlier stages of seizure development
NC(=O)N1c2ccccc2C=Cc2ccccc21 [carbamazepine],"antiepileptic effect in PTZ test, in words",[2],less effective
same,"effect on complete, late-stage or spontaneous kindled seizures, in words",[1],suppresses complete amygdala-kindled seizures
same,"effect on development / early stages of kindled seizures, in words",[1],ineffective in preventing their development
CC#CCC(CCC)C(=O)O (stereo not drawn) [2-propyl-4-liexynoic acid],afterdisch.thresh. (ADT; μA),"[3]; mean (X) of 8 kindled rats, control mean 48.50",126.25 μA
same,seizure severity (SS; score),"[3]; mean of 8 rats, control mean 5.00",3.63 score
same,seizure duration1 (SD1; sec),"[3]; mean of 8 rats, control mean 83.00",46.50 s
same,afterdisch.dur.1 (ADD1;sec),"[3]; mean of 8 rats, control mean 86.00",62.75 s
same,afterdisch.dur.2 (ADD2; sec),"[3]; mean of 8 rats, control mean 86.88",62.75 s
same,seizure duration2 (SD2; sec),"[3]; mean of 8 rats, control mean 258.75",105.63 s
same,"rotarod-test, day of exper.",[4],0%
same,BODY TEMP. (° C.) day of exper. 13′ post appl.,[5],38.31 °C
O=C1NC(=O)C(c2ccccc2)(c2ccccc2)N1 [Phenytoin],"effect on complete, late-stage or spontaneous kindled seizures, in words",[1],effective block of spontaneous seizures
same,"effect on development / early stages of kindled seizures, in words",[1],not seizures elicited during the early stages of kindling
